The NIST ThermoML archive (doi:10.1016/j.jct.2014.07.019)
Numbers after ± are expanded uncertainties.

Assay: xn = mol fraction of the nth substance listed
Conditions: 100 kPa, Liquid; for speed of sound: Frequency=3 MHz, Sing-around technique in a fixed-path interferometer; for mass density: Vibrating tube method

CCCCOCC(C)O (stereo not given) [1-butoxy-2-propanol] + CC(C)O
Conditions	mass density, 293.15 K [kg/m3]	mass density, 298.15 K [kg/m3]	speed of sound, 293.15 K [m/s]	speed of sound, 298.15 K [m/s]	speed of sound, 303.15 K [m/s]
x1 = 0.0518	795.249 ± 0.15	791.104 ± 0.15	1178.7 ± 1.2	1159 ± 1.2	1141.8 ± 1.2
x1 = 0.1029	803.695 ± 0.15	799.527 ± 0.15	1188.9 ± 1.2	1168.9 ± 1.2	1150.7 ± 1.2
x1 = 0.1532	811.327 ± 0.15	807.143 ± 0.15	1197.5 ± 1.2	1178.3 ± 1.2	1159.2 ± 1.2
x1 = 0.2019	818.045 ± 0.15	813.834 ± 0.15	1205.8 ± 1.2	1186.1 ± 1.2	1166.8 ± 1.2
x1 = 0.2529	824.525 ± 0.14	820.286 ± 0.15	1213.9 ± 1.2	1194.4 ± 1.2	1174.2 ± 1.2
x1 = 0.3032	830.352 ± 0.14	826.103 ± 0.14	1221.8 ± 1.2	1201.3 ± 1.2	1181 ± 1.2
x1 = 0.4059	840.824 ± 0.14	836.541 ± 0.14	1234.6 ± 1.2	1214 ± 1.2	1193.5 ± 1.2
x1 = 0.5048	849.502 ± 0.14	845.196 ± 0.14	1244.9 ± 1.2	1225.3 ± 1.2	1204.4 ± 1.2
x1 = 0.604	857.039 ± 0.14	852.718 ± 0.14	1253.3 ± 1.2	1234.6 ± 1.2	1214.4 ± 1.2
x1 = 0.7012	863.524 ± 0.14	859.19 ± 0.14	1261.2 ± 1.2	1243 ± 1.2	1222.6 ± 1.2
x1 = 0.8028	869.466 ± 0.14	865.108 ± 0.14	1267.7 ± 1.2	1250.2 ± 1.2	1230.5 ± 1.2
x1 = 0.8545	872.203 ± 0.14	867.842 ± 0.14	1270.6 ± 1.2	1254.6 ± 1.2	1234 ± 1.2
x1 = 0.9056	874.745 ± 0.14	870.379 ± 0.15	1273.4 ± 1.3	1257.5 ± 1.2	1237.5 ± 1.2
x1 = 0.954	876.996 ± 0.15	872.629 ± 0.15	1275.9 ± 1.3	1259.8 ± 1.3	1240.6 ± 1.3
x1 = 1	879.031 ± 0.15	874.632 ± 0.15	1279 ± 1.3	1260.9 ± 1.3	1242.9 ± 1.3
